The test system of data set [1] is Tγ9δ2 lymphocytes. The conditions noted are these: FIG. 7 lower. How it is done: The two left graphs are obtained by stimulating the Tγ9δ2 lymphocytes as in Example 12, by adding first 9 nM of BrHPP antigen into the culture medium, then by adding increasing concentrations (on the abscissa) of the compound according to the invention, BrHPCP. The two right hand graphs are obtained by incorporating first of all 60 μM of the compound according to the invention, BrHPCP, into the culture medium in contact with the Tγ9δ2 lymphocytes, then by adding increasing concentrations (on the abscissa) of the antigen compound stimulating BrHPP. […] The upper graphs give the percentage of residual response in the cultures (induced cytotoxicity test). The lower graphs give the concentration of TNF salted out in pg/ml.

In a further data set the test system is Tγ8δ3 lymphocytes. The conditions noted are these: clone stimulated by a conventional antigen; increasing concentrations; FIG. 8. How it is done:
A test of induced cytotoxicity is carried out as in Example 12, but with a clone of Tγ8δ3 lymphocyte stimulated by a conventional antigen of these lymphocytes (black circles), and in the presence of the compound according to the invention BrHPCP in increasing concentrations in the culture medium (black squares in FIG. 8).

Data set [2] relates to Tγ9δ2 lymphocytes. The data set is described as follows: Induced cytotoxicity test, Tγ9δ2 lymphocyte clone stimulated by antigen BrHPP.
Setting [3] is: read-out: IC50 concentration leading to the inhibition of 50% of the reference response, lymphocytes stimulated by 80 nM BrHPP, induced cytotoxicity test.
Setting [4] is: read-out: bioactivity (selective inhibition of Tγ9δ2 lymphocytes), concentration of BrHPP equal to 150 μM (so in the source).

Read-outs that look alike come from different tables or passages of the source.

On to `CC(O)(CBr)CCOP(=O)(O)CP(=O)(O)O` (stereo not shown) [BrH PCP, 3-(Bromomethyl)-3-butanol-1-yl-methylenediphosphonate], for which the “inhibition of stimulation by BrHPP (TNF salted out)” value with Tγ9δ2 lymphocytes [1] (9 nM BrHPP first, then increasing BrHPCP) is recorded as “inhibits the stimulation by BrHPP”. For the same compound, the “reversibility of inhibition (TNF salted out)” value with Tγ9δ2 lymphocytes [1] (60 μM BrHPCP first, then increasing BrHPP) is “reversible”. In the data set on Tγ8δ3 lymphocytes, the “inhibition of Tγ8δ3 lymphocytes” value is “does not inhibit the Tγ8δ3 lymphocytes”. The “inhibition of stimulation by BrHPP (residual response, induced cytotoxicity)” value with Tγ9δ2 lymphocytes [2] (9 nM BrHPP first, then increasing BrHPCP, FIG. 7 upper) is on record as “inhibits the stimulation by BrHPP”. Besides, the “reversibility of inhibition (induced cytotoxicity)” value in the data set on Tγ9δ2 lymphocytes [2] (60 μM BrHPCP first, then increasing BrHPP, FIG. 7 upper) is “reversible”. The IC50 with Tγ9δ2 lymphocytes [2] (setting [3]) came out at 15 µM. Consider `CC1(CCOP(=O)(O)C(F)P(=O)(O)O)CO1` (stereo not shown) [Epox PCHFP, 3,4-epoxy-3-methyl-1-butyl-monofluoromethylenediphosphonate], for which the IC50 with Tγ9δ2 lymphocytes [2] (setting [4]) is 50 µM. With `CC(O)(CBr)CCOP(=O)(O)C(F)(F)P(=O)(O)O` (stereo not shown) [BrH PCF2P, 3-(Bromomethyl)-3-butanol-1-yl-difluoromethylenediphosphonate], the IC50 with Tγ9δ2 lymphocytes [2] (setting [3]) was found to be 150 µM. Turning to `CC1(CCOP(=O)(O)CP(=O)(O)O)CO1` (stereo not shown) [Epox PCP, 3,4-Epoxy-3-methyl-1-butyl-methylenediphosphonate], the IC50 in the data set with Tγ9δ2 lymphocytes [2] (setting [3]) stood at 30 µM; in the data set on Tγ9δ2 lymphocytes [2] (read-out: IC50 concentration, stated in text (formulation example), IC50 defined with BrHPP at 80 nM), 15 µM. `CC(O)(CI)CCOP(=O)(O)CP(=O)(O)O` (stereo not shown) [IH PCP, 3-(Iodomethyl)-3-butanol-1-yl-methylenediphosphonate]: the IC50 in the data set on Tγ9δ2 lymphocytes [2] (setting [3]) stood at 15 µM. Same read-out and setting: then `CC1(CCOP(=O)(O)C(F)(F)P(=O)(O)O)CO1` (stereo not shown) [Epox PCF2P, 3,4-Epoxy-3-methyl-1-butyl-difluoromethylenediphosphonate], with 300 µM. Turning to `CC(O)(CBr)CCOP(=O)(O)C(F)P(=O)(O)O` (stereo not shown) [BrHPCHFP, 3-(bromomethyl)-3-butanol-1-yl-monofluoromethylenediphosphonate], the IC50 in the data set with Tγ9δ2 lymphocytes [2] (setting [4]) was found to be 30 µM. Regarding `CC(C)(O)CCOP(=O)(O)CP(=O)(O)O` [tButOH PCP, 3-Methyl-3-butanol-1-yl-methylenediphosphonate], the IC50 in the data set with Tγ9δ2 lymphocytes [2] (setting [3]) is 1000 µM.

Consider `C=C(C)CCOP(=O)(O)C(F)(F)P(=O)(O)O` [I PCF2P, 3-Methyl-3-butene-1-yl-difluoromethylenediphosphonate], for which, in the data set on Tγ9δ2 lymphocytes [2] (setting [3]), the IC50 was found to be 1000 µM. Same read-out and setting: with “3-Methyl-3-butene-1-yl-methylenediphosphonate [I PCP]” the figure was 700 µM.

For the origin of these results see US6624151B1, “Compounds selectively inhibiting gamma 9 delta 2 T lymphocytes” (Institut National de la Sante et de la Recherche Medicale, priority 1999, dated 2003).
